Test results from patent US12162861B2, “Dopamine D3 receptor selective antagonists/partial agonists; method of making; and use thereof” (THE UNITED STATES OF AMERICA, AS REPRESENTED BY THE …, priority 2016, dated 2024).

Columns and labels:
[1] = Phase I metabolic stability in monkey liver microsomes; type: in vitro ADME, rhesus monkey; conditions: monkey liver microsomes, Phase I
Method: Methods: Phase I metabolic stability assay was conducted in rat and rhesus monkey liver microsomes. For phase I metabolism, the reaction was carried out with 100 mM potassium phosphate buffer, pH 7.4, in the presence of NADPH regenerating system (1.3 mM NADPH, 3.3 mM glucose 6-phosphate, 3.3 mM MgCl2, 0.4 U/mL glucose-6-phosphate dehydrogenase, 50 μM sodium citrate). Reactions in triplicate were initiated by addition of the liver microsomes to the incubation mixture (compound final concentration was 10 μM; 0.5 mg/mL microsomes). Negative controls in the absence of cofactors were carried out to determine the specific cofactor-free degradation. Compound disappearance was monitored via LC/MS/MS. Chromatographic analysis was performed using an Accela™ ultra high-performance system consisting of an analytical pump, and an autosampler coupled with TSQ Vantage mass spectrometer (Thermo Fisher Scientific Inc., Waltham MA). […] The mobile phase used was composed of 0.1% Formic Acid in Acetonitrile and 0.1% Formic Acid in H2O with gradient elution, starting with 10% (organic) linearly increasing to 99% up to 2 min, maintaining at 99% (2-2.5 min) and re-equilibrating to 10% by 2.7 min. The total run time for each analyte was 5.0 min.

[2] = Pharmacokinetics in rats after oral administration; type: in vivo, rat; conditions: 10 mg/kg oral
Method: Male Long-Evans rats with body weights ˜250 grams (Charles River Laboratories, Raleigh, NC, USA) were used in this study. All rats were housed individually in a climate-controlled room under a 12 h light/dark cycle. Food and water were available ad libitum throughout the experiments. All experimental procedures were conducted in accordance with the Guide for the Care and Use of Laboratory Animals and were approved by the Animal Care and Use Committee of the National Institute on Drug Abuse of the U.S. National Institutes of Health. Experimental (oral gavage) procedures: The animals were gently restrained (grasp the animal by the loose skin of the neck and back) to immobilize the head but not such that the animals vocalize or show other signs of distress. Maintained the animal in an upright (vertical) position and passed the gavage needle (19-gauge) along the side of the mouth. Following the roof of the mouth, advanced the needle into the esophagus and toward the stomach. After the needle was passed to the correct length, the compound was injected. […] A volume of 3 μL was injected onto the ultra-performance liquid chromatography (UPLC) instrument for quantitative analysis using a temperature-controlled autosampler operating at 10° C. […] Quantification was performed in multiple-reaction monitoring (MRM) mode. […]

Row | Compound | % at 30 min. ([1]; 30 min) [%] | % at 60 min. ([1]; 60 min) [%] | exposures in brain and plasma, R- versus S-enantiomer ([2]; FIG. 12A) | Kp ([2]; male, Long-Evans, rat, brain and plasma, read-out: brain/plasma ratio)
1 | CCc1cc(Cl)c(OC)c(N2CCN(C[C@H](O)CCNC(=O)c3cc4ccccc4[nH]3)CC2)c1 [(R)-29, (R)—N-(4-(4-(3-chloro-5-ethyl-2-methoxyphenyl)piperazin-1-yl)-3-hydroxybutyl)-1H-indole-2-carboxamide] | 9 | 4 | twice higher exposures in both brain and plasma | 
2 | CCc1cccc(N2CCN(C[C@@H](O)CCNC(=O)c3cc4ccccc4[nH]3)CC2)c1Cl [(S)-19, (S)—N-(4-(4-(2-chloro-3-ethylphenyl)piperazin-1-yl)-3-hydroxybutyl)-1H-indole-2-carboxamide] |  |  |  | 6
